The values below come from patent publication US20250197357A1, “PPARG INVERSE AGONISTS AND USES THEREOF” (Flare Therapeutics Inc., priority 2022, published 2025).

The target of assay [1] is T1, PPARG/RXRA LBD heterodimer (Homo sapiens, UniProt P37231).
T1 construct: 2 nM WT PPARG LBD (e. coli expressed, His-TEV-Q203-Y477); fused on or other part: N-terminal His tag with TEV site on the PPARG LBD
The assay is described as follows: PPARγ-NCOR1 recruitment assay (TR-FRET). Type of assay: binding. As to conditions: NCOR1 ID2 peptide, 80 nM Rosiglitazone, 3 hours, read-out: PPARG - NCOR recruitment assay EC50. As to the method: Compound potency (EC50) and maximal extent of NCOR1 recruitment to PPARG were assessed a TR-FRET binding assay measuring association of a biotinylated NCOR1 ID2 peptide (Biotin-[…]-amide) to PPARG/RXRA LBD heterodimer. Specifically, a 20 microliters of TR-FRET master mix consisting of 2 nM WT PPARG LBD (e. coli expressed, His-TEV-Q203-Y477; Uniprot ID P37231-2), 2 nM WT RXRA LBD or mutant S427F RXRA LBD (e. coli expressed, Flag-TEV-E228-T462; […]. Mixtures were incubated for 3 hours and read in an EnVision plate reader (Perkin Elmer) with Ex/Em 615/665. To determine the potency (EC50) and extent of NCOR1 recruitment, TR-FRET ratios were normalized to the average ratio of DMSO control wells (0%) and to the average maximum ratio for positive control compound (T0070907 (2-chloro-5-nitro-N-4-pyridinyl-benzamide); defined as 100%) in CDD Vault and analyzed using the Levenberg-Marquardt algorithm.
(Time-resolved FRET reads energy transfer from a long-lived donor to a nearby acceptor.)
T1 sequence (O75376 2251-2273 limits assumed, one chain of several, further chain): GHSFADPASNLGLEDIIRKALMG

Assay [2] addresses T2, PPARG/RXRA LBD heterodimer (Homo sapiens, UniProt P37231).
T2 construct: His-TEV-Q203-Y477; Uniprot ID P37231-2; made in house; host or cells: E. coli
T2 sequence (P37231 203-477 isoform P37231-2): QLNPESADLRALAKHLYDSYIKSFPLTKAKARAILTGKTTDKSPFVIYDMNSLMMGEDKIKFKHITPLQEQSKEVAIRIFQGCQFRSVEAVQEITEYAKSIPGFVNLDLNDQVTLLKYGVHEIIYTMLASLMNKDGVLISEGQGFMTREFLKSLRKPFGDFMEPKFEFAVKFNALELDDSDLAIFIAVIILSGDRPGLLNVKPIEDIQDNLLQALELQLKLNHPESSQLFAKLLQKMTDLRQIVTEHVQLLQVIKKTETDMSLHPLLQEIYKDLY
T2 sequence (P19793 228-462 partner limits assumed): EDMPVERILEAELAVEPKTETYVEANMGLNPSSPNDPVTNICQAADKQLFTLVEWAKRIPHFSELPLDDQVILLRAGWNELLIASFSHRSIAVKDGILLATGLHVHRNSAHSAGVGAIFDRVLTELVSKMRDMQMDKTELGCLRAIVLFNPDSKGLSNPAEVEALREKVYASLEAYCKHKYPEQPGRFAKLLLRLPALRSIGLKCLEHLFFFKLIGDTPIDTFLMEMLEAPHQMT
As to the kind of experiment: PPARγ-MED1 blockade assay (TR-FRET). It is filed as binding. As to conditions: MED1 LxxLL peptide, 80 nM Rosiglitazone, 3 hours. As to the method: Compound potency (IC50) and maximal extent of MED1 repulsion to PPARG were assessed a TR-FRET binding assay measuring association of a biotinylated MED1 LxxLL peptide (Biotin—[…]-amide) to PPARG/RXRA LBD heterodimer. Specifically, a 20 microliters of TR-FRET master mix consisting of 2 nM WT PPARG LBD (e. coli expressed, His-TEV-Q203-Y477; Uniprot ID P37231-2), 2 nM WT RXRA LBD (e. coli expressed, Flag-TEV-E228-T462; […]. Mixtures were incubated for 3 hours and read in an EnVision plate reader (Perkin Elmer) with Ex/Em 615/665. To determine the potency (IC50) and extent of MED1 repulsion, TR-FRET ratios were normalized to the average ratio of DMSO control wells (0%) and to the average minimum ratio for positive control compound (GW9662 (2-chloro-5-nitrobenzanilide); defined as 100%) in CDD Vault and analyzed using the Levenberg-Marquardt algorithm.

Assay [3] has as its system ANGPTL4, a PPARG target gene, in HT1197 (RXRA S427F mutation) cells. The assay is described as follows: Bladder cancer pharmacodynamic assay (HT1197 cell assay, qPCR of PPARG target genes). Type of assay: cell-based. The following applies: Homo sapiens; for inhibition at 0.1 µM: 100 nM compound, 24 hours, relative to DMSO control; for EC50: 24 hours treatment, qPCR. As to the method: 5637 (PPARG amplified) and HT1197 (RXRA S427F mutation) cells were used for assessment of modulation of PPARG target genes using quantitative PCR. Cells were treated for 24 hours with PPARG inverse agonists prior to analysis of FABP4 (IDT, Cat: Hs.PT 58.20106818) and ANGPTL4 (IDT, Cat: Hs.PT 58.25480012) expression, with expression of the housekeeping gene TBP (IDT, Cat: Hs.PT 58v.39858774) used to normalize expression across samples. Quantitative PCR was performed using an ABI QuantStudio 7 Flex Reaction system. Data were analyzed and reported relative to DMSO control using the comparative Ct method (ΔΔCt).

A word on the EC50: it is the concentration at which the effect is half-maximal. A word on the inhibition: it is the percentage by which the read-out fell short of the control. On to `CS(=O)(=O)c1ccc(C#N)cc1C(=O)Nc1ccc(C#N)c(Cl)c1` [Example 1, N-(3-chloro-4-cyanophenyl)-5-cyano-2-(methylsulfonyl)benzamide], for which the EC50 in assay [1] was 100 to 1000 nM; in assay [2], 100 to 1000 nM; in assay [3] it was 5.2 nM. In assay [3], this compound showed an inhibition at 0.1 µM of 86%.

In the case of `N#Cc1ccc(SC(F)(F)F)c(C(=O)Nc2cc(F)c(-c3ccc(C(F)F)nc3)c(F)c2)c1` [Example 2, 5-cyano-N-(4-(6-(difluoromethyl)pyridin-3-yl)-3,5-difluorophenyl)-2-((trifluorometh-yl)thio)benzamide], the EC50 in assay [1] and in assay [2] was 100 to 1000 nM each time. For the same compound, in assay [3], 0.1 µM produced 83% inhibition.

`Cc1ccc(-c2c(F)cc(NC(=O)c3cc(C#N)ccc3SC(F)(F)F)cc2F)cn1` [Example 3, 5-cyano-N-(3,5-difluoro-4-(6-methylpyridin-3-yl)phenyl)-2-((trifluorometh-yl)thio)benzamide]: the EC50 in assay [1] fell in the range of 10 to 100 nM; in assay [2], 100 to 1000 nM. Further, the inhibition at 0.1 µM in assay [3] is 57%.

With `Cc1ccc(-c2c(F)cc(NC(=O)c3cc(C#N)ccc3S(C)(=O)=O)cc2F)cn1` [Example 4, 5-cyano-N-(3,5-difluoro-4-(6-methylpyridin-3-yl)phenyl)-2-(methylsulfonyl) benzamide], the EC50 in assay [1] and in assay [2] was 100 to 1000 nM throughout. Further, the inhibition at 0.1 µM in assay [3] was found to be 74%.

In the case of `CS(=O)(=O)c1ccc(C#N)cc1C(=O)Nc1cc(F)cc(F)c1` [Example 5, 5-cyano-N-(3,5-difluorophenyl)-2-(methylsulfonyl) benzamide], the figures for the EC50 in assay [1] and in assay [2] were 100 to 1000 nM and 1000 to 10000 nM, respectively. Also, testing at 0.1 µM in assay [3] gave an inhibition of 40%.

For the compound `N#Cc1ccc(SC(F)(F)F)c(C(=O)Nc2cc(F)cc(F)c2)c1` [Example 6, 5-cyano-N-(3,5-difluorophenyl)-2-(trifluorometh-ylsulfanyl)ben-zamide], the EC50 in assay [1] and in assay [2] was 100 to 1000 nM throughout. The inhibition at 0.1 µM in assay [3] was found to be 54%.

For `CS(=O)(=O)c1ccc(C#N)cc1C(=O)Nc1ccc(C#N)c(C(F)(F)F)c1` [Example 7, 5-cyano-N-(4-cyano-3-(trifluorometh-yl)phenyl)-2-(methylsulfonyl) benzamide], the EC50 in assay [1] and in assay [2] was 1000 to 10000 nM in each case. In assay [3], this compound had an inhibition at 0.1 µM of 77%.

On to `CS(=O)(=O)c1ccc(C#N)cc1C(=O)Nc1cc(Cl)cc(Cl)c1` [Example 8, 5-cyano-N-(3,5-dichlorophenyl)-2-(methylsulfonyl) benzamide], for which the 50% effective concentration (EC50) in assay [1] and in assay [2] was 100 to 1000 nM each time. The same compound came in with an inhibition at 0.1 µM in assay [3] of 41%.

As to `CS(=O)(=O)c1ccc(C#N)cc1C(=O)Nc1ccnc(C(F)(F)F)c1` [Example 9, 5-cyano-2-(methylsulfonyl)-N-(2-(trifluorometh-yl)pyridin-4-yl)benzamide], the EC50 in assay [1] and in assay [2] was 1000 to 10000 nM each time. The compound further displayed an inhibition at 0.1 µM in assay [3] of 64%.

Take `CS(=O)(=O)c1ccc(C#N)cc1C(=O)Nc1ccc(C(F)(F)F)c(C#N)c1` [Example 10, 5-cyano-N-(3-cyano-4-(trifluorometh-yl)phenyl)-2-(methylsulfonyl) benzamide]: the concentration for a half-maximal effect (EC50) in assay [1] and in assay [2] was 100 to 1000 nM in each case. This compound also returned an inhibition at 0.1 µM in assay [3] of 48%.

As to `CN1Cc2ccc(-c3c(F)cc(NC(=O)c4cc(C#N)ccc4S(C)(=O)=O)cc3F)cc2C1=O` [Example 11, 5-cyano-N-(3,5-difluoro-4-(2-methyl-3-oxoisoindolin-5-yl)phenyl)-2-(methylsulfonyl) benzamide], the EC50 in assay [1] is 10 to 100 nM; in assay [2], 100 to 1000 nM; in assay [3], 1.3 nM. This compound also returned an inhibition at 0.1 µM in assay [3] of 79%.

In the case of `CN1CCN(c2ccc(NC(=O)c3cc(C#N)ccc3S(C)(=O)=O)cn2)CC1` [Example 12, 5-cyano-N-(6-(4-methylpiperazin-1-yl)pyridin-3-yl)-2-(methylsulfonyl) benzamide], the EC50 in assay [1] and in assay [2] was over 10000 nM in each case. The same compound yielded an inhibition at 0.1 µM in assay [3] of 25%.

Consider `CS(=O)(=O)c1ccc(C#N)cc1C(=O)Nc1cc(F)c(-c2ccc(C(F)F)nc2)c(F)c1` [Example 13, 5-cyano-N-(4-(6-(difluoromethyl)pyridin-3-yl)-3,5-difluorophenyl)-2-(methylsulfonyl) benzamide], for which the figures for the EC50 in assay [1], in assay [2] and in assay [3] were 100 to 1000 nM, 100 to 1000 nM and 2.9 nM, respectively. Moreover, the inhibition at 0.1 µM in assay [3] stood at 80%.

For `CS(=O)(=O)c1ccc(C#N)cc1C(=O)Nc1ccc2cnccc2c1` [Example 14, 5-cyano-N-(isoquinolin-6-yl)-2-(methylsulfonyl) benzamide], the EC50 in assay [1] and in assay [2] was 1000 to 10000 nM throughout. Besides, in assay [3], at 0.1 µM the inhibition was 35%.

Consider `N#Cc1ccc(SC(F)(F)F)c(C(=O)Nc2cc(Cl)cc(Cl)c2)c1` [Example 15, 5-cyano-N-(3,5-dichlorophenyl)-2-((trifluorometh-yl)thio)benzamide], for which the EC50 in assay [1] and in assay [2] was 10 to 100 nM each time. The compound further showed an inhibition at 0.1 µM in assay [3] of 46%.

`CS(=O)(=O)c1ccc(C#N)cc1C(=O)Nc1cc(F)cc(Oc2ccc(Cl)cc2)c1` [Example 16, N-(3-(4-chlorophenoxy)-5-fluorophenyl)-5-cyano-2-(methylsulfonyl) benzamide]: the EC50 in assay [1] and in assay [2] was 10 to 100 nM each time.

Regarding `CS(=O)(=O)c1ccc(C#N)cc1C(=O)Nc1ccc(F)c(C#N)c1` [Example 17, 5-cyano-N-(3-cyano-4-fluorophenyl)-2-(methylsulfonyl) benzamide], the EC50 in assay [1] and in assay [2] was 1000 to 10000 nM each time. In assay [3], this compound came in with an inhibition at 0.1 µM of 43%.

Consider `CC(=O)N1CCN(c2ccc(NC(=O)c3cc(C#N)ccc3S(C)(=O)=O)cn2)CC1` [Example 18, N-(6-(4-acetylpiperazin-1-yl)pyridin-3-yl)-5-cyano-2-(methylsulfonyl) benzamide], for which the EC50 in assay [1] and in assay [2] was over 10000 nM throughout. The same compound gave an inhibition at 0.1 µM in assay [3] of 13%.

As for `Cc1cc(NC(=O)c2cc(C#N)ccc2S(C)(=O)=O)cc(C)n1` [Example 19, 5-cyano-N-(2,6-dimethylpyridin-4-yl)-2-(methylsulfonyl) benzamide], the EC50 in assay [1] and in assay [2] was over 10000 nM throughout. Moreover, the inhibition at 0.1 µM in assay [3] came to 20%.

In the case of `CS(=O)(=O)c1ccc(C#N)cc1C(=O)Nc1ccn2nccc2c1` [Example 20, 5-cyano-2-(methylsulfonyl)-N-(pyrazolo[1,5-a]pyridin-5-yl)benzamide], the EC50 in assay [1] and in assay [2] was over 10000 nM each time. In assay [3], the inhibition at 0.1 µM stood at 0%.

As for `CS(=O)(=O)c1ccc(C#N)cc1C(=O)Nc1ccc(C#N)c(F)c1` [Example 21, 5-cyano-N-(4-cyano-3-fluorophenyl)-2-(methylsulfonyl) benzamide], the EC50 in assay [1] and in assay [2] was 1000 to 10000 nM in each case. The inhibition at 0.1 µM in assay [3] turned out to be 79%.
